From US20060041017A1, “Synergistic conjugated linoleic acid (CLA) and carnitine combination” (priority 2004, published 2006)

Experiments:
Assay type in all cases: in vivo
[1] = tested on: carnitine palmitoyl transferase (CPT 1); assay: CPT I activity in brown adipose tissue after two weeks of daily oral gavage; conditions: adult rats, oral gavage daily for two weeks; for CPT I activity in brown adipose tissue (low dose) % Control: control = corn oil; for CPT I activity in brown adipose tissue (standard dose) % Control: control = water; for CPT I activity in brown adipose tissue (low dose) Mean ± SEM: L-Carnitine 68.25 mg, CLA 91 mg, Carnitine+CLA 68.25 mg+91 mg; for CPT I activity in brown adipose tissue (standard dose) Mean ± SEM: L-Carnitine 273 mg, CLA 354 mg, Carnitine+CLA 273 mg+364 mg
Text: Brown adipose tissue is an important site for long-term storage of fat in the body and for the rapid metabolism of fat for thermogenesis. CPT I is a key enzyme in this process and it has an essential role In the metabolism of fats by transporting long chain fatty acids into the Inner mitochondria for oxidation. The first experiment involved the following groups of adult rats. The treatment involved administration of the following products daily by oral gavage for two weeks, the control group receiving water. Carnitine was administered as the fumarate salt. • 1. Control (water)−(1 mL) • 2. L-Carnitine−273 mg (in 1 mL water) • 3. CLA−354 mg (In 1 mL corn oil) • 4. Carnitine+CLA−273 mg+364 mg (in 1 mL corn oil) At the end of two weeks, the animals were euthanized and brown adipose tissue was excised for CPT I assay according to Rahman et al(2001). […] Corn Oil−(1 mL) • 2. L-Carnitine−68.25 mg (in 1 mL water) • 3. CLA−91 mg (in 1 mL corn oil) • 4. Carnitine+CLA−68.25 mg+91 mg (in 1 mL corn oil)

heart mitochondrial CoQ = assay: Heart mitochondrial CoQ levels (HPLC) after 2 weeks of supplementation; conditions: Wistar rats; for Heart mitochondrial CoQ content (CoQ10-OX+CoQ9-OX) in comparison with control group: 2 weeks, result in words; for HEART mitochondria CoQ9-OX / HEART mitochondria CoQ10 + CoQ9 / HEART mitochondria CoQ10-OX: oral gavage daily 2 weeks, 91 mg CLA, 68,25 mg L-carnitine fumarate, means ± s.e.m.
Procedure: (§1) Methods: Four groups of 3-months old Wistar rats were given the following treatments by oral gavage daily for 2 weeks: (1) C (control)−1 ml corn oil, (2) CLA−91 mg CLA (in corn oil), (3) CAR−68,25 mg L-carnitine fumarate (in corn oil), (4) CLA+CAR−91 mg CLA with 68,25 mg L-carnitine fumarate (in corn oil). Body weight and body fat weight (corpus adiposum nuchae, corpus adiposum, perirenal tissue, omentum majus) were measured. CoQ 10 and CoQ9 in isolated mitochondria were estimated by HPLC method. For evaluation of parameters of oxidative phosphorylation were used Gilson oxygraph records of respiratory chain by using Clark oxygen electrode (S3— ADP stimulated respiration, S4— basal respiration, OPR—rate of ATP production). A spectrophotometric assay was used for CPT activity.

[2] = tested on: Carnitine palmitoytransferase (CPT); assay: CPT activity in heart mitochondria (spectrophotometric assay); conditions: Wistar rats, oral gavage daily 2 weeks; 91 mg CLA, 68,25 mg L-carnitine fumarate; means ± s.e.m.
Procedure: as §1

kidney mitochondrial CoQ = assay: Kidney mitochondrial CoQ levels (HPLC) after 2 weeks of supplementation; conditions: Wistar rats; for Kidney mitochondrial CoQ content (CoQ10-OX+CoQ9-OX) in comparison with control group: 2 weeks, result in words; for KIDNEY mitochondria CoQ9-OX / KIDNEY mitochondria CoQ10 + CoQ9 / KIDNEY mitochondria CoQ10-OX: oral gavage daily 2 weeks, 91 mg CLA, 68,25 mg L-carnitine fumarate
Procedure: as §1

[3] = tested on: Carnitine palmitoytransferase (CPT); assay: CPT activity in kidney mitochondria (spectrophotometric assay); conditions: Wistar rats, oral gavage daily 2 weeks; 91 mg CLA, 68,25 mg L-carnitine fumarate
Procedure: as §1

Row | Molecule | CPT I activity in brown adipose tissue (low dose) % Control [1] | CPT I activity in brown adipose tissue (standard dose) % Control [1] | CPT I activity in brown adipose tissue (low dose) Mean ± SEM [1] | CPT I activity in brown adipose tissue (standard dose) Mean ± SEM [1] | Heart mitochondrial CoQ content (CoQ10-OX+CoQ9-OX) in comparison with control group (heart mitochondrial CoQ) | HEART mitochondria CoQ9-OX (heart mitochondrial CoQ) | HEART mitochondria CoQ10 + CoQ9 (heart mitochondrial CoQ) | HEART mitochondria CoQ10-OX (heart mitochondrial CoQ) | HEART mitochondria CPT [2] | Kidney mitochondrial CoQ content (CoQ10-OX+CoQ9-OX) in comparison with control group (kidney mitochondrial CoQ) | KIDNEY mitochondria CoQ9-OX (kidney mitochondrial CoQ) | KIDNEY mitochondria CoQ10 + CoQ9 (kidney mitochondrial CoQ) | KIDNEY mitochondria CoQ10-OX (kidney mitochondrial CoQ) | KIDNEY mitochondria CPT [3]
1 | C[N+](C)(C)CC(O)CC(=O)[O-] (stereo not shown) [Carnitine, 3-hydroxy-4-N,N, N-trlmethylaminobutyrate] | 125 % Control | 117.85 % Control | 27.024 ± 2.074 nmoles/mg protein/min | 26.808 ± 2.373 nmoles/mg protein/min | significantly stimulated | 4.692 ± 0.168 nmol/mg prot. | 5.147 ± 0.181 nmol/mg prot. | 0.452 ± 0.021 nmol/mg prot. | 12.36 ± 1.759 nmol/mg rot./min | significantly stimulated | 1.290 ± 0.119 nmol/mg prot. | 1.471 ± 0.128 nmol/mg prot. | 0.138 ± 0.012 nmol/mg prot. | 2.974 ± 0.466 nmol/mg rot./min
2 | octadecadienoic acid [CLA] | 121.53 % Control | 129.82 % Control | 27.840 ± 1.259 nmoles/mg protein/min | 29.530 + 1.590 nmoles/mg protein/min | significantly stimulated | 3.379 ± 0.261 nmol/mg prot. | 3.722 ± 0.298 nmol/mg prot. | 0.343 ± 0.041 nmol/mg prot. | 15.52 ± 1.080 nmol/mg rot./min | significantly stimulated | 1.162 ± 0.102 nmol/mg prot. | 1.284 ± 0.105 nmol/mg prot. | 0.122 ± 0.005 nmol/mg prot. | 6.517 ± 0.351 nmol/mg rot./min
